# Measurements published in BindingDB's records for doi:10.1021/jm950589q (Ibm Thomas J. Watson Research Center, 1996).
# Experiment: Inhibitory concentration against HIV-1 replication by interfering with virus reverse transcriptase
row,SMILES,IC50 [nM]
1,C=C(C)CN1Cc2cccc3[nH]c(=S)n(c23)CC1C (centres undefined),26
2,CC1Cn2c(=S)[nH]c3cccc(c32)CN1CC1CC1 (centres undefined),60
3,CC(C)=CCN1Cc2cc(Cl)cc3[nH]c(=O)n(c23)CC1C (centres undefined),180
4,C=C(C)CN1Cc2cccc3[nH]c(=O)n(c23)CC1C (centres undefined),34700
5,"CC(C)=CCN1CCn2c(=S)[nH]c3cc(Cl)cc(c32)C1C (centres undefined) [4-Chloro-6-methyl-7-(3-methyl-but-2-enyl)-6,7,8,9-tetrahydro-2H-2,7,9a-triaza-benzo[cd]azulene-1-thione]",23
6,"CC(C)=CCN1CCn2c(=S)[nH]c3cc(Cl)cc(c32)C1 [4-Chloro-7-(3-methyl-but-2-enyl)-6,7,8,9-tetrahydro-2H-2,7,9a-triaza-benzo[cd]azulene-1-thione]",160
7,"CC1Cn2c(=S)[nH]c3cc(Cl)cc(c32)CN1CC1CC1 (centres undefined) [4-Chloro-7-cyclopropylmethyl-8-methyl-6,7,8,9-tetrahydro-2H-2,7,9a-triaza-benzo[cd]azulene-1-thione]",34
8,"C=C(C)CN1Cc2cc(Cl)cc3[nH]c(=S)n(c23)C(C)C1 (centres undefined) [4-Chloro-9-methyl-7-(2-methyl-allyl)-6,7,8,9-tetrahydro-2H-2,7,9a-triaza-benzo[cd]azulene-1-thione]",670
9,"CC(C)=CCN1CCn2c(=O)[nH]c3ccc(Cl)c(c32)C1C (centres undefined) [5-Chloro-6-methyl-7-(3-methyl-but-2-enyl)-6,7,8,9-tetrahydro-2H-2,7,9a-triaza-benzo[cd]azulen-1-one]",145
10,"CC(C)=CCN1Cc2c(Cl)ccc3[nH]c(=S)n(c23)C[C@@H]1C [5-Chloro-8-methyl-7-(3-methyl-but-2-enyl)-6,7,8,9-tetrahydro-2H-2,7,9a-triaza-benzo[cd]azulene-1-thione]",5
11,"C=C(C)CN1Cc2cccc3[nH]c(=O)n(c23)C(CCC)C1 (centres undefined) [7-(2-Methyl-allyl)-9-propyl-6,7,8,9-tetrahydro-2H-2,7,9a-triaza-benzo[cd]azulen-1-one]",48100
12,"CC(C)=CCN1[C@H](C)Cn2c(=S)[nH]c3cc(Cl)cc(c32)[C@@H]1C [(6S,8R)-4-Chloro-6,8-dimethyl-7-(3-methyl-but-2-enyl)-6,7,8,9-tetrahydro-2H-2,7,9a-triaza-benzo[cd]azulene-1-thione]",480
13,"CC(C)=CCN1[C@H](C)Cn2c(=S)[nH]c3cccc(c32)[C@@H]1C [(6S,8R)-6,8-Dimethyl-7-(3-methyl-but-2-enyl)-6,7,8,9-tetrahydro-2H-2,7,9a-triaza-benzo[cd]azulene-1-thione]",1150
14,"CC(C)=CCN1Cc2cccc3[nH]c(=S)n(c23)C[C@@H]1C [(11S)-11-methyl-10-(3-methylbut-2-en-1-yl)-1,3,10-triazatricyclo[6.4.1.0^{4,13}]trideca-4(13),5,7-triene-2-thione]",97

# Further compounds by falling IC50, results first:
row,IC50 [nM],SMILES
1,56700,"CC(C)=CCN1Cc2cccc3[nH]c(=O)n(c23)C(C)C1C (centres undefined) [8,9-Dimethyl-7-(3-methyl-but-2-enyl)-6,7,8,9-tetrahydro-2H-2,7,9a-triaza-benzo[cd]azulen-1-one]"
2,32100,"C=C(C)CN1Cc2cccc3[nH]c(=O)n(c23)C(C)C1 (centres undefined) [9-Methyl-7-(2-methyl-allyl)-6,7,8,9-tetrahydro-2H-2,7,9a-triaza-benzo[cd]azulen-1-one]"
3,25800,"CC(C)=CCN1CC(C)n2c(=S)[nH]c3cccc(c32)C1C (centres undefined) [6,9-Dimethyl-7-(3-methyl-but-2-enyl)-6,7,8,9-tetrahydro-2H-2,7,9a-triaza-benzo[cd]azulene-1-thione]"
4,13400,"CC1C(C)n2c(=S)[nH]c3cccc(c32)CN1CC1CC1 (centres undefined) [7-Cyclopropylmethyl-8,9-dimethyl-6,7,8,9-tetrahydro-2H-2,7,9a-triaza-benzo[cd]azulene-1-thione]"
5,12600,"C=C(C)CN1Cc2cccc3[nH]c(=O)n(c23)C(C(C)C)C1 (centres undefined) [9-Isopropyl-7-(2-methyl-allyl)-6,7,8,9-tetrahydro-2H-2,7,9a-triaza-benzo[cd]azulen-1-one]"
6,12100,"CC(C)=CCN1CCn2c(=O)[nH]c3cccc(c32)C1C (centres undefined) [6-Methyl-7-(3-methyl-but-2-enyl)-6,7,8,9-tetrahydro-2H-2,7,9a-triaza-benzo[cd]azulen-1-one]"
7,3320,CC(C)=CCN1Cc2cccc3[nH]c(=O)n(c23)CC1C (centres undefined)
8,2220,"CC(C)=CCN1Cc2cccc3[nH]c(=S)n(c23)C(C)C1C (centres undefined) [8,9-Dimethyl-7-(3-methyl-but-2-enyl)-6,7,8,9-tetrahydro-2H-2,7,9a-triaza-benzo[cd]azulene-1-thione]"
9,230,"CC(C)=CCN1[C@H](C)Cn2c(=O)[nH]c3cc(Cl)cc(c32)[C@@H]1C [(6S,8R)-4-Chloro-6,8-dimethyl-7-(3-methyl-but-2-enyl)-6,7,8,9-tetrahydro-2H-2,7,9a-triaza-benzo[cd]azulen-1-one]"
10,160,"CC(C)=CCN1CCn2c(=O)[nH]c3cc(Cl)cc(c32)C1C (centres undefined) [4-Chloro-6-methyl-7-(3-methyl-but-2-enyl)-6,7,8,9-tetrahydro-2H-2,7,9a-triaza-benzo[cd]azulen-1-one]"
11,78,"CC(C)=CCN1CCn2c(=S)[nH]c3cccc(c32)C1C (centres undefined) [6-Methyl-7-(3-methyl-but-2-enyl)-6,7,8,9-tetrahydro-2H-2,7,9a-triaza-benzo[cd]azulene-1-thione]"
12,46,"CC(C)=CCN1CCn2c(=S)[nH]c3ccc(Cl)c(c32)C1 [5-Chloro-7-(3-methyl-but-2-enyl)-6,7,8,9-tetrahydro-2H-2,7,9a-triaza-benzo[cd]azulene-1-thione]"
13,43,CC(C)=CCN1Cc2cc(Cl)cc3[nH]c(=S)n(c23)C[C@@H]1C
14,42,"CC(C)=CCN1[C@H](C)Cn2c(=S)[nH]c3cccc(c32)[C@H]1C [(6R,8R)-6,8-Dimethyl-7-(3-methyl-but-2-enyl)-6,7,8,9-tetrahydro-2H-2,7,9a-triaza-benzo[cd]azulene-1-thione]"
15,12,"CC(C)=CCN1CCn2c(=S)[nH]c3ccc(Cl)c(c32)C1C (centres undefined) [5-Chloro-6-methyl-7-(3-methyl-but-2-enyl)-6,7,8,9-tetrahydro-2H-2,7,9a-triaza-benzo[cd]azulene-1-thione]"
